Reference: ChEMBL document CHEMBL1201862, “PubChem BioAssay data set” (2004)
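A five-concentration, 48-hour dose response in 96-well plates underlies each endpoint, interpolated linearly between surrounding concentrations. Here, GI50 denotes the concentration required for 50% inhibition of growth.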 Active and inactive are the calls of the source. No stated cut-off is given here; in the data, active = GI50 up to about 1.1 µM and inactive = higher.

Tests used:
Test in all cases: DTP human tumour cell line panel, 48 h
HCC 2998 = tested on: HCC 2998
A498 = tested on: A498
COLO 205 = tested on: COLO 205
Hs-578T = tested on: Hs-578T
SNB-75 = tested on: SNB-75
HT-29 = tested on: HT-29
NCI/ADR-RES = tested on: NCI/ADR-RES
MDA-MB-435 = tested on: MDA-MB-435
HOP-92 = tested on: HOP-92
U-251 = tested on: U-251
OVCAR-5 = tested on: OVCAR-5
SR = tested on: SR
K562 = tested on: K562
HL-60 = tested on: HL-60
OVCAR-3 = tested on: OVCAR-3
KM-20L2 = tested on: KM-20L2
SF-268 = tested on: SF-268
RXF 393 = tested on: RXF 393
CAKI-1 = tested on: CAKI-1
NCI-H460 = tested on: NCI-H460

Measured: GI50

CC(C)c1ccc(C2NC(S)=NC3=C2c2ccccc2C3=O)cc1 (stereo not given)
inactive: HCC 2998 > 36.6 µM | A498 36.7 µM | COLO 205 26.4 µM | Hs-578T 14.8 µM | SNB-75 15.7 µM | HT-29 25.5 µM | NCI/ADR-RES 15.1 µM | MDA-MB-435 6.97 µM | HOP-92 22.3 µM | U-251 26.7 µM | OVCAR-5 34 µM | SR 8.95 µM | K562 22.6 µM | HL-60 8.75 µM | OVCAR-3 26.2 µM | KM-20L2 25.6 µM | SF-268 19.9 µM | RXF 393 10.3 µM | CAKI-1 22.8 µM | NCI-H460 29.2 µM
